Experimental findings from patent US10450322B2, “Low molecular weight derivatives of carboxamide halogenated porphyrins, namely chlorins and bacteriochlorins, and their applications thereof” (LUZITIN, S.A., priority 2015, dated 2019) are described below.

The test system of the test is P. acnes (ATCC 6919). As to the kind of experiment: In vitro phototoxicity towards Propionibacterium acnes. As to conditions: 2 μM, 30 min incubation, irradiated with 10 J/cm^2. It counts as cell-based. On the procedure:
Phototoxicity towards bacteria was evaluated in vitro against P. acnes (ATCC® 6919—Remel, Lenexa, Kans., USA) using light with the appropriate wavelength. P. acnes bacteria was cultured in Reinforced Clostridial Medium (Oxoid, Basingstok, UK) under anaerobic atmosphere at 37° C. Anaerobic growth conditions were obtained using an anaerobic jar with a sachet for anaerobic conditions generation (Anaerocult A, Merck, Darmstadt, Germany). P. acnes suspension was diluted with culture medium to an optical density at 620 nm of 1.3, corresponding to approximately […] CFU/ml (colony-forming units per milliliter). The diluted suspension was centrifuged at 13000 rpm for 10 minutes, and re-suspended in PBS. Test compound stock solutions were dissolved in PEG400:DMSO ([…] 400:dimethyl sulfoxide) (55:45) and were diluted to the appropriate concentrations with PBS. The incubation of the test compounds with P. acnes was performed in DB Falcon black 96-well plates with clear flat-bottom (Franklin Lakes, N.J., USA), in the absence of light, during 30 minutes. […] After the incubation period, the viability of P. acnes was evaluated. […] The phototoxicity was measured according to the description in the Materials and Methods section. […]

In the case of `CNC(=O)c1c2nc(c(-c3c(F)cccc3F)c3ccc(cc4nc(c(-c5c(F)cccc5F)c5ccc1[nH]5)CC4)[nH]3)CC2` [formula IX, 5-methylcarboxamide-10,20-bis-(2,6-difluorophenyl)bacteriochlorin], the “log CFU P. Acnes (reduction of bacterial CFU, orders of magnitude)” value was 9 log CFU.
